From paper PMC4201332 (ACS Chemical Biology, 2014)

How the values were obtained:
hmGlu1 = hmGlu1 (Homo sapiens, UniProt Q13255); experiment: Calcium mobilization mGlu1 PAM potency assay; format: cell-based; conditions: for Emax: T-REx-293, read-out: hmGlu1 % Glu Max (±SEM)
mGlu1 WT receptor [1] = target: T1, mGlu1 WT receptor (Homo sapiens, UniProt Q13255); format: cell-based; conditions: 10 μM PAM
[2] = system: amphetamine-induced hyperlocomotion in WT rats; experiment: Amphetamine-induced hyperlocomotion; format: in vivo, rat; conditions: doses up to 100 mg/kg i.p.
hmGlu4 = hmGlu4 (Homo sapiens, UniProt Q14833); experiment: Calcium mobilization mGlu4 assay; format: cell-based
Sequence of hmGlu4 (Q14833 33-912): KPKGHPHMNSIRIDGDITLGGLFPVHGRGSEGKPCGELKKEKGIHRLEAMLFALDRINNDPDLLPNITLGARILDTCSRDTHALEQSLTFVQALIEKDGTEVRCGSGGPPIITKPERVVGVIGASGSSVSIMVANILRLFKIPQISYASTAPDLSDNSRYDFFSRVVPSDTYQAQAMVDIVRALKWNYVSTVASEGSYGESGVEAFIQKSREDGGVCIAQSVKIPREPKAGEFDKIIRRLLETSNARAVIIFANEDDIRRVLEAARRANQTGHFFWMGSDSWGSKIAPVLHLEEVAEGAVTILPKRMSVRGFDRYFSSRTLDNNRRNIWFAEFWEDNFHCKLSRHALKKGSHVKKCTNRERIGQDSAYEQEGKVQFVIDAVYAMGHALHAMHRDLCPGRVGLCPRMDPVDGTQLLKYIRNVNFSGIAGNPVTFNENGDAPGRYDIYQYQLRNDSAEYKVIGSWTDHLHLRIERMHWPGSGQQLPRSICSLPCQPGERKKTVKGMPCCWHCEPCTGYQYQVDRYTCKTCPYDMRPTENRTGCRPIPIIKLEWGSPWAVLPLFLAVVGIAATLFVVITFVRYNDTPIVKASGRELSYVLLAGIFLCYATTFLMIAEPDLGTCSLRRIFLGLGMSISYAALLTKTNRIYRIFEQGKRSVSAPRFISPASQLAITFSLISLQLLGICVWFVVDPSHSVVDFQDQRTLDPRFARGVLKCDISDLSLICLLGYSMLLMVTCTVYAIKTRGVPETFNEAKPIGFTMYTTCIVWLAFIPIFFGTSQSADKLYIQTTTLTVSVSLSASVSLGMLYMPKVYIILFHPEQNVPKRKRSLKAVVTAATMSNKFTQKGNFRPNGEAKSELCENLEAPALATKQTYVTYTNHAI

mGlu1 WT receptor [3] = target: T1, mGlu1 WT receptor; format: cell-based
CYP1A2 = target: T2, CYP1A2 (Homo sapiens, UniProt P05177); experiment: Cytochrome P450 inhibition; format: in vitro ADME
T2 sequence (P05177 1-516): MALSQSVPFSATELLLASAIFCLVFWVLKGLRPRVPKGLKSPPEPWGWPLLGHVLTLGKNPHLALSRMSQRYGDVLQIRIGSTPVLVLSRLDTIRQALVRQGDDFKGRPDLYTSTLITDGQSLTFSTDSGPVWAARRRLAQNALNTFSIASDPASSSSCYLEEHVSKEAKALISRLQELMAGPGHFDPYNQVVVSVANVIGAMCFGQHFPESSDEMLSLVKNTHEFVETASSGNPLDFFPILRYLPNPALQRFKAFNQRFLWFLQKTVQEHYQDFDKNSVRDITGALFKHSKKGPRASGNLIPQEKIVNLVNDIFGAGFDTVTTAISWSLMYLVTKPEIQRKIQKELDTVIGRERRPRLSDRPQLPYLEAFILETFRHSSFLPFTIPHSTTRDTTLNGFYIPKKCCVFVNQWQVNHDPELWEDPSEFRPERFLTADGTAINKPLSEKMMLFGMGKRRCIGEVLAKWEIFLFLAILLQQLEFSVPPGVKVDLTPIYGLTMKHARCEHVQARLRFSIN

CYP2D6 = CYP2D6 (Homo sapiens, UniProt P10635); experiment: Cytochrome P450 inhibition; format: in vitro ADME
Sequence of CYP2D6 (P10635 whole entry): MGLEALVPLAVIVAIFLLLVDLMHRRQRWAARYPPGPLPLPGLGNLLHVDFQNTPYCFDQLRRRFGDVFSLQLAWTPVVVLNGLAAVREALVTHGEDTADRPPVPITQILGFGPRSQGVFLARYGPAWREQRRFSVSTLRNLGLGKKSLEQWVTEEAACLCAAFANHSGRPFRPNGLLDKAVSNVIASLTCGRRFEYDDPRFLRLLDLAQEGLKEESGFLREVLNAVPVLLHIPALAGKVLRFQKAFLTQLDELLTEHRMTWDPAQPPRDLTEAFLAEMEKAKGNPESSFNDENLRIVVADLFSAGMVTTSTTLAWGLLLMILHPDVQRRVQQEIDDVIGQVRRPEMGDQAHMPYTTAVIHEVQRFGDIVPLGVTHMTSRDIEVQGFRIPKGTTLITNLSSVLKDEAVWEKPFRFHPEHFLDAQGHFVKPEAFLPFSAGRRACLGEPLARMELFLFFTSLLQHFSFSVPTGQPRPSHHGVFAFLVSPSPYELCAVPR

CYP2C9 = CYP2C9 (Homo sapiens, UniProt P11712); experiment: Cytochrome P450 inhibition; format: in vitro ADME
Sequence of CYP2C9 (P11712 whole entry): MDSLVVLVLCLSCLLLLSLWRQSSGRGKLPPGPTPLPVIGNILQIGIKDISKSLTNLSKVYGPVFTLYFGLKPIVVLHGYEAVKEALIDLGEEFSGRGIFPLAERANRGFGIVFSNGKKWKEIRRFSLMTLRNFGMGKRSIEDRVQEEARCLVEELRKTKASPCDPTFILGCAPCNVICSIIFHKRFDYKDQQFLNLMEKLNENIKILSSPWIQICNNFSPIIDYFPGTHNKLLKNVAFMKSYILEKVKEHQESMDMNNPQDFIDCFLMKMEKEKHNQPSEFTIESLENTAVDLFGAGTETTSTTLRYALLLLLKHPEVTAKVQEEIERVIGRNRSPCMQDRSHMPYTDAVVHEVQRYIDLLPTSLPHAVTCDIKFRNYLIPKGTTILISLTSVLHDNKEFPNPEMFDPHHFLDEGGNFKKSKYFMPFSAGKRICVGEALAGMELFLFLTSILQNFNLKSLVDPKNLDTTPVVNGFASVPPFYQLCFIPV

CYP3A4 = CYP3A4 (Homo sapiens, UniProt P08684); experiment: Cytochrome P450 inhibition; format: in vitro ADME
Sequence of CYP3A4 (P08684 whole entry): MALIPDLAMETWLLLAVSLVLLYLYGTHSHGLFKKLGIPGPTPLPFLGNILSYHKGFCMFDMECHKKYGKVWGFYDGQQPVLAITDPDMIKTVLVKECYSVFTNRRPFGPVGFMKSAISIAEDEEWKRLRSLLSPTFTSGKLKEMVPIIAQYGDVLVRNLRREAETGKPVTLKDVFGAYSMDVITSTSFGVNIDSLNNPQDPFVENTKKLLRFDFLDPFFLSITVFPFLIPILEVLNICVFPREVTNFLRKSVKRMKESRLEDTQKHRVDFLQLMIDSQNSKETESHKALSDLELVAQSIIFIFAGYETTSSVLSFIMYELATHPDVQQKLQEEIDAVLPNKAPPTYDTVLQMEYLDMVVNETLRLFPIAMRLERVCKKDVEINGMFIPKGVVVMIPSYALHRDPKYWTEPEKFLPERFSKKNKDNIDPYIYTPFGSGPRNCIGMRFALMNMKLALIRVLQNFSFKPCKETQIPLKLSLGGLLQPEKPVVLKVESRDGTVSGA

mGlu1 P1015A mutant = mGlu1 P1015A mutant (Homo sapiens, UniProt Q13255, P1015A); experiment: Calcium mobilization in stable Sz mutant cell line; format: cell-based; conditions: agonist DHPG
Sequence of mGlu1 P1015A mutant (Q13255 19-1194 P1015A): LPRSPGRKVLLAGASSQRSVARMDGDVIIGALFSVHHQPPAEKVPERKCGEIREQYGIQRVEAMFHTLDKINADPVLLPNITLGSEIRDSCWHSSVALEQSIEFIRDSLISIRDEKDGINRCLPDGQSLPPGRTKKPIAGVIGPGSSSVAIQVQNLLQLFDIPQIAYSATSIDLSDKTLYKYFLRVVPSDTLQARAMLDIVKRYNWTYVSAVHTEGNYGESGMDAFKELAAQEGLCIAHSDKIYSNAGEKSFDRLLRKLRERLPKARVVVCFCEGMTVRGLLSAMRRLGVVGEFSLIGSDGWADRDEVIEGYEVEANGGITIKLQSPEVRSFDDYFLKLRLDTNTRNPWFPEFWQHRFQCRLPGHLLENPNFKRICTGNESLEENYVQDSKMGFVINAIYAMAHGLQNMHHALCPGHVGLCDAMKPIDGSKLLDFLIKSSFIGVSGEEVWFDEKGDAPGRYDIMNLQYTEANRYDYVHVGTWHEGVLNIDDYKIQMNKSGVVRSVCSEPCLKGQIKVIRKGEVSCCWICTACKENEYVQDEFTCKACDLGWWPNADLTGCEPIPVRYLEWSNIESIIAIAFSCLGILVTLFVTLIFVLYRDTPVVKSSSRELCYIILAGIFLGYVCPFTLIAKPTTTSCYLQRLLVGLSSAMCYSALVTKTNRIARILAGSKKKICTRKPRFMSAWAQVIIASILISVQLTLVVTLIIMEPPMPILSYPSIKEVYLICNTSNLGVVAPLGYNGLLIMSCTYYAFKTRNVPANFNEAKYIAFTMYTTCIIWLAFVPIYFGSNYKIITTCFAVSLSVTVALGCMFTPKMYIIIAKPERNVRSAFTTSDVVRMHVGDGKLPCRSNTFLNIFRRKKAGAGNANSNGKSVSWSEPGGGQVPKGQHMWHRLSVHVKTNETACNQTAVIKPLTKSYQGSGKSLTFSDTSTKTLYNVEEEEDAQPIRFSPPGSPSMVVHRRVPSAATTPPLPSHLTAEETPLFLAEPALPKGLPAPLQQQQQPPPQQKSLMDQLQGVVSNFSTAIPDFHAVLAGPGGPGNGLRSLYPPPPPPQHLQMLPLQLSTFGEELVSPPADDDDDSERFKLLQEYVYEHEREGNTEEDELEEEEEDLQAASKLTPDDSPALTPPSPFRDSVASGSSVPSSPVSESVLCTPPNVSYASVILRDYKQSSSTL

mGlu1 Sz mutants = experiment: Calcium mobilization in stable cell lines expressing schizophrenia; format: cell-based, human
mGlu1 K563N mutant = mGlu1 K563N mutant (Homo sapiens, UniProt Q13255, K563N); experiment: Calcium mobilization in stable Sz mutant cell line; format: cell-based; conditions: agonist DHPG
Sequence of mGlu1 K563N mutant (Q13255 19-1194 K563N): as the sequence (Q13255 19-1194 P1015A) above, with K545N, A997P counted along it

[4] = hmGlu1 EC50, calcium mobilization, average of n = 3 performed in triplicate

Sequence of hmGlu1 (Q13255 19-1194): as the sequence (Q13255 19-1194 P1015A) above, with A997P counted along it
T1 sequence (Q13255 19-1194): as the sequence (Q13255 19-1194 P1015A) above, with A997P counted along it

Cc1cccnc1C(=O)Nc1ccc(N2C(=O)c3cccc(C)c3C2=O)c(Cl)c1 [23a]
Emax (hmGlu1): 101 ± 7% | EC50 (hmGlu1; [4]): 176 nM

Cc1ccc2c(c1)C(=O)N(c1ccc(NC(=O)c3ncccc3C)cc1Cl)C2=O [23b]
Emax (hmGlu1): 130 ± 26% | EC50 (hmGlu1; [4]): > 10000 nM

Cc1cccnc1C(=O)Nc1ccc(N2C(=O)c3cccc(Cl)c3C2=O)c(Cl)c1 [23c]
left-ward fold shift of the glutamate concentration response curve (mGlu1 WT receptor [1]): ~3 fold | effect on amphetamine-induced hyperlocomotion [2]: behaved similarly | EC50 (hmGlu4): 199 nM | hmGlu4 % Glu Max (hmGlu4; calcium mobilization): 55% | leftward fold shift of the DHPG concentration-response curve (mGlu1 WT receptor [3]; 10 μM PAM, WT mGlu1): 3.4 fold | hmGlu1 % Glu Max (±SEM) (hmGlu1; calcium mobilization): 126 ± 25% | EC50 (hmGlu1; [4]): 372 nM | EC50 (hmGlu1; hmGlu1 EC50, text and Figure 6): 370 nM

Cc1cccnc1C(=O)Nc1ccc(N2C(=O)c3cccc(F)c3C2=O)c(Cl)c1 [23e]
Emax (hmGlu1): 90 ± 15% | EC50 (hmGlu1; [4]): 418 nM

Cc1cccnc1C(=O)Nc1ccc(N2C(=O)c3ccc(F)cc3C2=O)c(Cl)c1 [23f]
EC50 (hmGlu1; [4]): > 10000 nM

Cc1cccc2c1C(=O)N(c1ccc(NC(=O)c3ncccc3Cl)cc1Cl)C2=O [24a]
Emax (hmGlu1): 110 ± 21% | EC50 (hmGlu1; [4]): 177 nM

Cc1ccc2c(c1)C(=O)N(c1ccc(NC(=O)c3ncccc3Cl)cc1Cl)C2=O [24b]
Emax (hmGlu1): 82 ± 4% | EC50 (hmGlu1; [4]): 832 nM

O=C(Nc1ccc(N2C(=O)c3cccc(Cl)c3C2=O)c(Cl)c1)c1ncccc1Cl [24c, N-(3-chloro-4-(4-chloro-1,3-dioxoisoindolin-2-yl)phenyl)-3-chloropicolinamide]
IC50 (CYP1A2): > 30000 nM | IC50 (CYP2D6): > 30000 nM | effect on amphetamine-induced hyperlocomotion [2]: no effect up to the highest dose | IC50 (CYP2C9): > 30000 nM | IC50 (CYP3A4): > 30000 nM | hmGlu1 % Glu Max (±SEM) (hmGlu1; calcium mobilization): 110 ± 15% | EC50 (hmGlu1; [4]): 391 nM | EC50 (hmGlu1; hmGlu1 pEC50 (±SEM), calcium mobilization): 389 nM

O=C(Nc1ccc(N2C(=O)c3cccc(F)c3C2=O)c(Cl)c1)c1ncccc1Cl [24e]
Emax (hmGlu1): 117 ± 9% | EC50 (hmGlu1; [4]): 1140 nM

N[C@H](C(=O)O)c1cc(O)cc(O)c1 [DHPG, (S)-3,5-dihydroxyphenylglycine]
calcium response, % of WT response (mGlu1 P1015A mutant): ~90% | calcium response, % of WT response (mGlu1 Sz mutants; agonist DHPG, majority of mutants, typically): 55–75% | calcium response, % of WT (mGlu1 K563N mutant): ~110% | EC50 (mGlu1 WT receptor [3]): 2500 nM

N[C@@H](CCC(=O)O)C(=O)O [glutamate, L-glutamic acid]
calcium response, % of the WT response (mGlu1 Sz mutants; agonist glutamate, mutants typically, except K563N and P1015A): 45–65%
